Experiments:
[1] = test system: green foxtail; experiment: Test Example 5: herbicidal effect by foliage application, plastic box (Table 20, symbol G); type: in vivo, green foxtail (Setaria viridis); conditions: foliage application, AAH 320 g/ha, evaluated three weeks after application
Outline: (§1)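 Foliar spray test: emulsion formulation diluted in water to a set application rate, sprayed onto 14-day-old plants raised in diluvial soil at 25° C to 30° C under glass. Both herbicidal effect and crop effect rated visually three weeks later.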

[2] = test system: blackgrass; experiment: Test Example 4: herbicidal effect by soil treatment (Table 19, symbol J); type: in vivo, blackgrass (Alopecurus myosuroides)
Outline: (§2)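 Step 1: sow seeds in sterilized diluvial soil, cover ~1.5 cm. Step 2: spray diluted emulsion onto soil surface at predetermined rate. Step 3: greenhouse, 25–30° C, three weeks. Step 4: grade effect on each plant by earlier criteria.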

[3] = test system: southern crabgrass; experiment: Test Example 4: herbicidal effect by soil treatment (Table 19, symbol F); type: in vivo, southern crabgrass (Digitaria ciliaris)
Outline: as §2

[4] = test system: persian speedwell; experiment: Test Example 5: herbicidal effect by foliage application, plastic box (Table 20, symbol R); type: in vivo, Persian speedwell (Veronica persica); conditions: foliage application, AAH 320 g/ha, evaluated three weeks after application
Outline: as §1

[5] = test system: wild oat; experiment: Test Example 5: herbicidal effect by foliage application, plastic box (Table 20, symbol I); type: in vivo, wild oat (Avena fatua); conditions: foliage application, AAH 320 g/ha, evaluated three weeks after application
Outline: as §1

[6] = test system: wild oat; experiment: Test Example 4: herbicidal effect by soil treatment (Table 19, symbol I); type: in vivo, wild oat (Avena fatua)
Description: (§3) [Test Example 4] Herbicidal Effect Test by Soil Treatment
(§4) Sterilized diluvial soil was placed in a plastic box having a length of 21 cm, a width of 13 cm, and a depth of 7 cm. The seeds of each of southern crabgrass, green foxtail, barnyard grass, wild oat, blackgrass, Italian ryegrass, windgrass, velvetleaf, redroot pigweed, lambsquarters, chickweed, false cleavers, persian speedwell, corn, soybean, rice, wheat, beet, and rapeseed were sowed in a spot-like manner and covered with the soil having a thickness of about 1.5 cm. Subsequently, the emulsion agent of the compound of the present invention prepared according to Formulation Example 2 was diluted with water so as to achieve a predetermined herbicide amount, and the diluted emulsion agent was uniformly applied to the surface of the soil with a small-sized spray. The plastic box was placed in a greenhouse at 25° C. to 30° C. for growth of the plants. Three weeks after the herbicide application, the effect of the herbicide on each plant was evaluated according to the criteria of Test Example 1.

[7] = test system: windgrass; experiment: Test Example 5: herbicidal effect by foliage application, plastic box (Table 20, symbol L); type: in vivo, windgrass (Apera spica-venti); conditions: foliage application, AAH 320 g/ha, evaluated three weeks after application
Outline: as §1

[8] = test system: lambsquarters; experiment: Test Example 5: herbicidal effect by foliage application, plastic box (Table 20, symbol O); type: in vivo, lambsquarters (Chenopodium album); conditions: foliage application, AAH 320 g/ha, evaluated three weeks after application
Outline: as §1

[9] = test system: lambsquarters; experiment: Test Example 4: herbicidal effect by soil treatment (Table 19, symbol O); type: in vivo, lambsquarters (Chenopodium album)
Outline: as §2

[10] = test system: chickweed; experiment: Test Example 5: herbicidal effect by foliage application, plastic box (Table 20, symbol P); type: in vivo, common chickweed (Stellaria media); conditions: foliage application, AAH 320 g/ha, evaluated three weeks after application
Outline: as §1

[11] = test system: Italian ryegrass; experiment: Test Example 5: herbicidal effect by foliage application, plastic box (Table 20, symbol K); type: in vivo, Italian ryegrass (Lolium multiflorum); conditions: foliage application, AAH 320 g/ha, evaluated three weeks after application
Outline: as §1

[12] = test system: Chinese sprangletop; experiment: Test Example 3: herbicidal effect by foliage application, Wagner pot (Table 18, symbol D); type: in vivo, chinese sprangletop (Leptochloa chinensis)
Outline: (§5)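 Plants were sown in alluvial soil held under 0.1–0.5 cm standing water and grown 14 days in a greenhouse at 25–30 °C. An emulsifiable formulation, water-diluted to the set dose, was then sprayed onto the foliage, and effects were scored three weeks later using previously defined criteria.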

[13] = test system: rice flat sedge; experiment: Test Example 3: herbicidal effect by foliage application, Wagner pot (Table 18, symbol E); type: in vivo, rice flat sedge (Cyperus iria)
Outline: as §5

[14] = test system: southern crabgrass; experiment: Test Example 5: herbicidal effect by foliage application, plastic box (Table 20, symbol F); type: in vivo, southern crabgrass (Digitaria ciliaris); conditions: foliage application, AAH 320 g/ha, evaluated three weeks after application
Outline: as §1

[15] = test system: redroot pigweed; experiment: Test Example 4: herbicidal effect by soil treatment (Table 19, symbol N); type: in vivo, redroot pigweed (Amaranthus retroflexus)
Outline: as §2

[16] = test system: barnyard grass; experiment: Test Example 4: herbicidal effect by soil treatment (Table 19, symbol H); type: in vivo, barnyard grass (Echinochloa crus-galli)
Outline: as §2

[17] = test system: green foxtail; experiment: Test Example 4: herbicidal effect by soil treatment (Table 19, symbol G); type: in vivo, green foxtail (Setaria viridis)
Outline: as §2

[18] = test system: barnyard grass; experiment: Test Example 3: herbicidal effect by foliage application, Wagner pot (Table 18, symbol H); type: in vivo, barnyard grass (Echinochloa crus-galli)
Outline: as §5

[19] = test system: Italian ryegrass; experiment: Test Example 4: herbicidal effect by soil treatment (Table 19, symbol K); type: in vivo, Italian ryegrass (Lolium multiflorum)
Outline: as §2

[20] = test system: redroot pigweed; experiment: Test Example 5: herbicidal effect by foliage application, plastic box (Table 20, symbol N); type: in vivo, redroot pigweed (Amaranthus retroflexus); conditions: foliage application, AAH 320 g/ha, evaluated three weeks after application
Outline: as §1

[21] = test system: chickweed; experiment: Test Example 4: herbicidal effect by soil treatment (Table 19, symbol P); type: in vivo, common chickweed (Stellaria media)
Description: as §3, §4

[22] = test system: blackgrass; experiment: Test Example 5: herbicidal effect by foliage application, plastic box (Table 20, symbol J); type: in vivo, blackgrass (Alopecurus myosuroides); conditions: foliage application, AAH 320 g/ha, evaluated three weeks after application
Outline: as §1

[23] = test system: velvetleaf; experiment: Test Example 5: herbicidal effect by foliage application, plastic box (Table 20, symbol M); type: in vivo, velvetleaf (Abutilon theophrasti); conditions: foliage application, AAH 320 g/ha, evaluated three weeks after application
Outline: as §1

[24] = test system: velvetleaf; experiment: Test Example 4: herbicidal effect by soil treatment (Table 19, symbol M); type: in vivo, velvetleaf (Abutilon theophrasti)
Outline: as §2

[25] = test system: barnyard grass; experiment: Test Example 5: herbicidal effect by foliage application, plastic box (Table 20, symbol H); type: in vivo, barnyard grass (Echinochloa crus-galli); conditions: foliage application, AAH 320 g/ha, evaluated three weeks after application
Outline: as §1

[26] = test system: windgrass; experiment: Test Example 4: herbicidal effect by soil treatment (Table 19, symbol L); type: in vivo, windgrass (Apera spica-venti); conditions: amount of applied herbicide 320 g/ha
Outline: as §2

[27] = test system: persian speedwell; experiment: Test Example 4: herbicidal effect by soil treatment (Table 19, symbol R); type: in vivo, Persian speedwell (Veronica persica); conditions: amount of applied herbicide 280 g/ha
Description: as §3, §4

[28] = amount of applied herbicide 320 g/ha
[29] = amount of applied herbicide 280 g/ha

COCCSc1ccc(-c2sc3ccc(F)cc3c2-c2c(O)c(C)nn(C)c2=O)cc1 [2-265]
G: green foxtail, herbicidal effect (criteria 0-5) [1]: 5 (Herbicidal rate of 90% or more (almost completely withered))
herbicidal effect on J: blackgrass [2, 28]: 0 (Herbicidal rate of 5% or less (almost no effect))
herbicidal effect on F: southern crabgrass [3, 28]: 3 (Herbicidal rate of 40% or more and less than 70%)
R: persian speedwell, herbicidal effect (criteria 0-5) [4]: 5 (Herbicidal rate of 90% or more (almost completely withered))
I: wild oat, herbicidal effect (criteria 0-5) [5]: 3 (Herbicidal rate of 40% or more and less than 70%)
herbicidal effect on I: wild oat [6, 28]: 0 (Herbicidal rate of 5% or less (almost no effect))
L: windgrass, herbicidal effect (criteria 0-5) [7]: 0 (Herbicidal rate of 5% or less (almost no effect))
O: lambsquarters, herbicidal effect (criteria 0-5) [8]: 4 (Herbicidal rate of 70% or more and less than 90%)
herbicidal effect on O: lambsquarters [9, 28]: 4 (Herbicidal rate of 70% or more and less than 90%)
P: chickweed, herbicidal effect (criteria 0-5) [10]: 5 (Herbicidal rate of 90% or more (almost completely withered))
K: Italian ryegrass, herbicidal effect (criteria 0-5) [11]: 2 (Herbicidal rate of 20% or more and less than 40%)
herbicidal effect on D: Chinese sprangletop [12, 28]: 4 (Herbicidal rate of 70% or more and less than 90%)
herbicidal effect on E: rice flat sedge [13, 28]: 5 (Herbicidal rate of 90% or more (almost completely withered))
F: southern crabgrass, herbicidal effect (criteria 0-5) [14]: 4 (Herbicidal rate of 70% or more and less than 90%)
herbicidal effect on N: redroot pigweed [15, 28]: 5 (Herbicidal rate of 90% or more (almost completely withered))
herbicidal effect on H: barnyard grass [16, 28]: 2 (Herbicidal rate of 20% or more and less than 40%)
herbicidal effect on G: green foxtail [17, 28]: 4 (Herbicidal rate of 70% or more and less than 90%)
herbicidal effect on H: barnyard grass [18, 28]: 5 (Herbicidal rate of 90% or more (almost completely withered))
herbicidal effect on K: Italian ryegrass [19, 28]: 0 (Herbicidal rate of 5% or less (almost no effect))
N: redroot pigweed, herbicidal effect (criteria 0-5) [20]: 5 (Herbicidal rate of 90% or more (almost completely withered))
herbicidal effect on P: chickweed [21, 28]: 0 (Herbicidal rate of 5% or less (almost no effect))
J: blackgrass, herbicidal effect (criteria 0-5) [22]: 0 (Herbicidal rate of 5% or less (almost no effect))
M: velvetleaf, herbicidal effect (criteria 0-5) [23]: 5 (Herbicidal rate of 90% or more (almost completely withered))
herbicidal effect on M: velvetleaf [24, 28]: 3 (Herbicidal rate of 40% or more and less than 70%)
H: barnyard grass, herbicidal effect (criteria 0-5) [25]: 4 (Herbicidal rate of 70% or more and less than 90%)
herbicidal effect on L: windgrass [26]: 0 (Herbicidal rate of 5% or less (almost no effect))

COc1cccc(-c2sc3ccc(F)cc3c2-c2c(O)c(C)nn(C)c2=O)n1 [2-382]
herbicidal effect, J: blackgrass [2, 29]: 0 (Herbicidal rate of 5% or less (almost no effect))
herbicidal effect, F: southern crabgrass [3, 29]: 0 (Herbicidal rate of 5% or less (almost no effect))
herbicidal effect, R: persian speedwell [27]: 4 (Herbicidal rate of 70% or more and less than 90%)
herbicidal effect, I: wild oat [6, 29]: 0 (Herbicidal rate of 5% or less (almost no effect))
herbicidal effect, O: lambsquarters [9, 29]: 4 (Herbicidal rate of 70% or more and less than 90%)
herbicidal effect on D: Chinese sprangletop [12, 29]: 0 (Herbicidal rate of 5% or less (almost no effect))
herbicidal effect on E: rice flat sedge [13, 29]: 3 (Herbicidal rate of 40% or more and less than 70%)
herbicidal effect, N: redroot pigweed [15, 29]: 4 (Herbicidal rate of 70% or more and less than 90%)
herbicidal effect, H: barnyard grass [16, 29]: 1 (Herbicidal rate of 5% or more and less than 20%)
herbicidal effect, G: green foxtail [17, 29]: 0 (Herbicidal rate of 5% or less (almost no effect))
herbicidal effect on H: barnyard grass [18, 29]: 0 (Herbicidal rate of 5% or less (almost no effect))
herbicidal effect, K: Italian ryegrass [19, 29]: 1 (Herbicidal rate of 5% or more and less than 20%)
herbicidal effect, P: chickweed [21, 29]: 4 (Herbicidal rate of 70% or more and less than 90%)
herbicidal effect, M: velvetleaf [24, 29]: 1 (Herbicidal rate of 5% or more and less than 20%)

Reference: patent publication US20230085307A1, “PYRIDAZINONE COMPOUND AND HERBICIDE” (NISSAN CHEMICAL CORPORATION, priority 2019, published 2023)
